# Patent US4146628A, “Antiarrhythmic quinuclidine carboxylic acid xylidide and method of producing the same and similar compounds” (priority 1977, dated 1979)
# Values joined by “and” are separate entries in the source; they are usually repeats but may differ in a detail not shown here. Equal entries are not always repeated. “Also recorded” adds a separate entry of the source. Structures can show the parent of a compound that is named as a salt. Where two headings read alike, the source gives them in different places.
# Experiments:
# [1] = Comparative tests of antiarrhythmic action, neurotoxicity and side effects (general statements); details: general statement
# [2] = Dahlbom and Dolby, Acta Pharm. Suecica (1969); cited from earlier work
# [3] = Biological availability by the oral route in dog; format: in vivo
# Protocol: The biological availability of Compound I administered by the oral route was determined first in a conscious, healthy dog that received a dose of 7.5 mg/kg subdivided in 6 gelatin capsules that were slipped down its throat.
# normal heart [4] = test: Effect on normal heart (ECG) in nembutal-anesthetized cats; format: in vivo
# Protocol: Nembutal anesthetized cats responded differently. […] If drug administration was discontinued at this stage, then the severe toxic effects would disappear after 40 minutes, the heart reverting to normal sinus rhythm.
# normal heart [5] = test: Effect on normal heart (ECG) in conscious healthy dogs; format: in vivo
# Protocol: The effect of Compound I on the normal heart was determined by the administration of the compound as a bolus intravenous injection to conscious healthy dogs for which lead II of the electrocardiogram was monitored for as long as 2 hours after injection.
# In one case, a single dose of 5 mg/kg was administered rapidly in order to achieve a high but transient concentration in the heart. […] The ECG record reverted to normal within 15 minutes.
# [6] = in vivo
# [7] = Pharmacokinetic parameters in conscious dogs with occlusion-induced arrhythmia; format: in vivo; details: dog, blood, iv
# Protocol: The pharmacokinetic parameters of Compound I were determined in conscious dogs suffering from occlusion-induced arrhythmia. After intravenous injection of a single therapeutic dose, venous blood samples were withdrawn at given intervals, heparinized and analyzed for their content of Compound I by gas chromatography.
# [8] = Occlusion-induced arrhythmias in conscious dogs, oral administration; format: in vivo; details: oral 15-20 mg/kg in 4 to 6 gelatin capsules, all cases
# Protocol: Tests were also carried out to determine the effect of oral administration of Compound I on occlusion induced arrhythmias in conscious dogs.
# Arrhythmia was induced by occlusion of the left anterior descending artery, as above described. Following this, Compound I was administered orally to the animals at the rate of 15-20 mg/kg, the dose being divided among 4 to 6 gelatin capsules, without prior treatment such as micronization or admixture with a diluent or carrier.
# [9] = Interaction with Indoklon-induced seizures; format: in vivo; details: Indoklon by inhalation 30 minutes later
# Source text: (§1) The lack of interaction of Compound I with other centrally active drugs may also be taken as an indication of its lack of activity in the CNS.
# [10] = Ouabain-induced arrhythmia in dogs; format: in vivo; design: key to S.R. (sinus rhythm), Compound I treated: +: denotes return to the rhythm
# Protocol: In other experiments using mongrel dogs, the animals were anesthetized by an i.v. injection of nembutal (25 mg/kg), then arrhythmia was induced by the administration of decreasing doses of ouabain at 30 minute intervals, 40, 20 and 10 μg/kg. Treatment with Compound I was then carried out as described for cats.
# [11] = Occlusion-induced arrhythmias in conscious dogs, parenteral administration; format: in vivo
# Protocol: The effect of parenteral administration of Compound I on occlusion-induced arrhythmias in conscious dogs was determined. Occulsion was achieved by ligation of the left anteria descending coronary artery on 5 dogs.
# Compound I was administered once within 24 hours and once within 48 hours after ligation.
# [12] = Interaction with metrazole-induced convulsions; format: in vivo; details: metrazole 100 mg/kg; i.p. 30, 60 and 90 minutes prior to metrazole
# Source text: as §1
# [13] = Ouabain-induced arrhythmia in the cat; format: in vivo; design: key to S.R. (sinus rhythm), Lidocaine-treated / S.R. (sinus rhythm), Compound I treated: +: denotes return to the rhythm
# [14] = Summary comparison with lidocaine: ouabain-induced arrhythmia; format: in vivo; details: i.v.
# [15] = Summary comparison with lidocaine: side effects; details: summary table
# [16] = Interaction with oxotremorine-induced tremors; format: in vivo; details: oxotremorine 20 μg/kg i.p.; given i.p. 30 minutes prior
# Source text: as §1
# [17] = in vivo; remark: listed apart in the source
# normal heart [18] = test: Effect on normal heart (ECG) in nembutal-anesthetized dog; format: in vivo; details: nembutal 25 mg/kg; cumulative i.v. dose 6 mg/kg over 30 minutes
# [19] = Interaction with electro shock-induced seizure; format: in vivo; details: 30 volts
# Source text: as §1
# [20] = Acute toxicity, i.p. injection in mice; details: mouse, in vivo, ip, 0.5% solution, male albino ICR mice, probit analysis
# Protocol: The toxicity of Compound I was determined by i.p. injection of a 0.5% solution of the drug into male, albino ICR mice weighing 20-25 g each. A group of six mice was used for each dose.
# conscious, healthy dogs = details: dog, in vivo, iv, 5 mg/kg
# [21] = Effect of Compound II in drug-induced (ouabain) arrhythmia; format: in vivo; details: 2.7 kg cat, nembutal; ouabain 70 μg per kg; i.v. 1.1 mg per kg
# Protocol: Arrhythmia was induced in 2.7 kg cat, previously anesthetized with nembutal, by the slow infusion of ouabain over a period of one hour and to a total dose of 70 μg per kg.
# albino mice = test: Symptoms after intraperitoneal administration to albino mice; format: in vivo; details: i.p.
# Source text: This is confirmed by the tests of compound II, namely the hydrochloride of 2,6-xylidide of quinuclidine-2-carboxylic acid, which was produced both by the method of French Pat. No. 1,566,045, and by the method of the present invention. Administration of Compound II to albino mice by the intraperitoneal route induced the following symptoms: […]
# [22] = Effect of Compound II in arrhythmia induced by coronary occlusion; format: in vivo; details: dog 15 kg, 24 hours after ligation; i.v. 3 mg per kg
# Source text: Arrhythmia was induced in a dog of 15 kg body weight, by ligation of the left anteria descending coronary artery with a silk thread number 000.
# [23] = French Pat. No. 1,566,045; cited from earlier work
# [24] = dog, conditions as Table 1, hydrochloride
# [25] = cat 13, lidocaine HCl single i.v. injection 1.6 mg/kg
# [26] = cat, lidocaine HCl single i.v. injection 4 mg/kg, 4 mg/kg
structure (smiles),measurement,setting,value
"Cc1cccc(C)c1NC(=O)C1CN2CCC1CC2 (centres unmarked) [2,6-xylidide of quinuclidine-3-carboxylic acid]",cardiac antiarrhythmic action,[1],pronounced cardiac antiarrhythmic activity; also recorded: highly pronounced cardiac antiarrhythmic action
same,pharmacological effect,[2],no pharmacological effect except for a weak local anaesthetic action
"Cc1cccc(C)c1NC(=O)C1CN2CCC1CC2 (centres unmarked) [Compound I, 2,6-xylidide of quinuclidine-3-carboxylic acid hydrochloride]",bioavailability in conscious arrhythmic dogs,"[3]; conscious arrhythmic dogs, oral, relative to healthy dog",of the same order
same,bioavailability,"[3]; dog, in vivo, po, summary table",~80%
same,Cmax,"[3]; in vivo, oral 7.5 mg/kg in 6 gelatin capsules, conscious healthy dog, read-out: Peak blood concentration",1500 to 2000 ng/mL
same,effect on ECG,normal heart [4]; cumulative dose 6 mg/kg,broadening of the QRS occurred but sinus rhythm was maintained
same,effect on ECG,normal heart [4]; cumulative dose 10.5 mg/kg,broadening of the QRS occurred but sinus rhythm was maintained
same,effect on ECG / conduction,"normal heart [4]; cumulative dose 16.5 mg/kg, hydrochloride, 16.5 mg/kg",second degree AV block occurred; also recorded: Atrial conduction slowed down
same,time to disappearance of severe toxic effects,"normal heart [4]; drug administration discontinued after 16.5 mg/kg cumulative, heart reverting to normal sinus rhythm",40 min
same,effect on ECG / heart,"normal heart [4]; further […], total cumulative dose 23.5 mg/kg","high degree AV block, followed by cardiac standstill"
same,effect on ECG,normal heart [4]; total dose of 3 mg/kg in small increments over 34 minutes,leftward shift of the QRS complex
same,effect on ECG,"normal heart [5]; dog, in vivo, 5 mg/kg",Broadening of the QRS complex was observed
same,time for ECG record to revert to normal,"normal heart [5]; dog, in vivo, 5 mg/kg",≤ 15 min
same,change in the ECG,"normal heart [5]; dog, in vivo, iv, 3 mg/kg",no change in the ECG
same,other signs of overt toxicity,"normal heart [5]; single dose of 5 mg/kg administered rapidly, one case",no other signs of overt toxicity
same,side effects,[6],absence of side effects such as hypotension and CNS stimulation
same,half-life,"[7]; i.v. single therapeutic dose, conscious arrhythmic dogs, venous blood, GC, read-out: Biological half-life (t1/2)",240 to 300 min
same,half-life,"[7]; i.v. single therapeutic dose, conscious arrhythmic dogs, read-out: t1/2 for distribution",5 min
same,half-life,"[7]; summary table, read-out: t1/2 for distribution",5 min
same,half-life,"[7]; summary table, read-out: t1/2 for elimination",240 to 300 min
same,Vd,"[7]; summary table, read-out: volume of distribution",0.2 L/kg
same,restoration of normal sinus rhythm,[8],fully effective in the restoration of normal sinus rhythm
same,effect against Indoklon-induced seizures,[9],equally ineffective
same,"H.R. (heart rate), Compound I treated","[10]; dog, conditions as Table 1",170 per min
same,"S.R. (sinus rhythm), Compound I treated","[10]; dog, conditions as Table 1",+
same,"B.P. (blood pressure), Compound I treated",[10]; [24],100/80 and 140/110
same,Duration (period of observation from onset of reversal of arrhythmia),[10]; [24],40 min and 25 min
same,reappearance of arrhythmia and response to additional dose,"[10]; dogs 14, 15, one i.v. injection of […]",Arrhythmia reappeared after this period but was suppressed
same,reversal of VT to normal sinus rhythm,"[10]; dogs, 1 mg/kg single doses",reversal of VT to normal sinus shythm was achieved
same,"Onset of effect, occlusion-induced arrhythmia within 1st 24 hr.",[11]; i.v.,2 min
same,"duration of full, uninterrupted sinus rhythm",[11]; one bolus i.v. injection of 3 mg/kg within 24 hours after ligation,≤ 20 min
same,effect on metrazole-induced convulsions,[12],did not affect metrazole-induced convulsions
same,solubility,Solubility,highly soluble
same,"B.P. (blood pressure), Compound I treated","[13]; cat 1, 0.5 mg/kg used",80/60
same,Duration (period of observation from onset of reversal of arrhythmia),"[13]; cat 1, 0.5 mg/kg used",10 min
same,"H.R. (heart rate), Compound I treated","[13]; cat 1, 0.5 mg/kg used",100 per min
same,"S.R. (sinus rhythm), Compound I treated","[13]; cat 1, 0.5 mg/kg used",+
same,Duration (period of observation from onset of reversal of arrhythmia),"[13]; cat 3, bolus i.v. 1 mg/kg, after ouabain",240 min
same,improvement of the ECG,"[13]; cat, single dose 1 mg/kg, 10 minutes after constant arrhythmia, ouabain 70-90 μg/kg cumulative",marked improvement of the ECG that lasted much longer than any improvement achieved with lidocaine
same,reappearance of arrhythmia and response to additional dose,"[13]; cats marked ##, additional dose 1 mg/kg for 2, 7 and 0.5 mg/kg for 10",suppressed again with an additional dose of EO-122
same,"Duration of effect, ouabain-induced arrhythmia",[14],about 1 hour
same,"Onset of effect, ouabain-induced arrhythmia",[14],about 2 minutes
same,Side effects: CNS-effects,[15],none
same,Side effects: Emesis,[15],partial
same,effect on oxotremorine-induced tremors,[16],did not affect oxotremorine-induced tremors
same,Side effects: Hypotension,[17],none
same,change in the ECG,normal heart [18],no change in the ECG
same,effect against electro shock-induced seizure,[19],equally ineffective
same,LD50,[20],60 ± 5 mg/kg
same,"change in posture, behavior or mood","conscious, healthy dogs","no significant change in posture, behavior or mood from control"
"Cc1cccc(C)c1NC(=O)C1CC2CCN1CC2 (centres unmarked) [Compound II, 2,6-xylidide of quinuclidine-2-carboxylic acid hydrochloride]",effect in ouabain-induced arrhythmia,[21],precipitated ventricular fibrillation and death
same,cause of death,albino mice; 100 mg per kg,respiratory failure
same,lethal dose,albino mice; albino mice,100 mg. per kg
same,Effects,albino mice; dose range 20-30 mg per kg,"increased locomotion, excitation"
same,Effects,"albino mice; dose range 40-60 mg per kg, hydrochloride","pronounced neurotoxicity, ataxia; also recorded: partial paralysis"
same,neurotoxicity,[22],clear signs of neurotoxicity such as undue excitement and lateral movements of the head
same,response in the electrocardiogram,[22],only a fleeting response in the electrocardiogram with only a few signs of improvement
CCN(CC)CC(=O)Nc1c(C)cccc1C [Lidocaine],"Onset of effect, occlusion-induced arrhythmia within 1st 24 hr.",[11]; i.v.,2 min
same,Single therapeutic dose for suppression of Occlusion-induced arrhythmia within 1st 24 hr. after operation,[11]; i.v.,often ineffective
same,effect of lidocaine on occlusion-induced arrhythmia,"[11]; same animals, bolus i.v. 3 mg/kg",either completely ineffective or of ultra-short duration
same,"B.P. (blood pressure), Lidocaine-treated",[13]; [25],130/100
same,Duration (period of observation from onset of reversal of arrhythmia),[13]; [25],3 min
same,"H.R. (heart rate), Lidocaine-treated",[13]; [25],80 per min
same,"S.R. (sinus rhythm), Lidocaine-treated",[13]; [25],+
same,"B.P. (blood pressure), Lidocaine-treated",[13]; [26],60/40 and 120/80
same,"H.R. (heart rate), Lidocaine-treated",[13]; [26],150 per min and 110 per min
same,reappearance of arrhythmia after lidocaine,[13]; cats 12 and 13,Arrhythmia reappeared
same,"Onset of effect, ouabain-induced arrhythmia",[14],about 2 minutes
same,Side effects: Emesis,[15],partial
same,Side effects: Hypotension,[15],about 20%
"Cc1cccc(C)c1NC(=O)C1CC2CCN1CC2 (centres unmarked) [2,6-xylidide of quinuclidine-2-carboxylic acid]",cardiac antiarrhythmic action,[1],devoid of useful cardiac antiarrhythmic action; also recorded: devoid of useful antiarrhythmic properties; also recorded: devoid of any useful cardiac antiarrhythmic effect
same,neurotoxicity,[1],neurotoxic
same,cardiac antiarrhythmic action,"[1]; listed as 2,6,-xylidide of quinuclidine-2-carboxylic acid",completely devoid of any useful antiarrhythmic action
same,action indicated,[23],antiarrhythmic and local anaesthetic action
